According to paper PMC3397408, “Natural and synthetic cathelicidin peptides with anti-microbial and anti-biofilm activity against Staphylococcus aureus” (BMC Microbiology, 2011):
Like-named read-outs stand apart in the source and are kept apart here. Where no end group is shown, it is not given here.

Key:
[1] = tested on: S. aureus biofilm formation; conditions: peptide 10 μg/ml, TSB, 24 h, 37°C, polystyrene 96-well plate, crystal violet 570 nm, n = 6, relative to 0 peptide control
Experimental: (§1) C. […] Growth (absorbance at 600 nm) is indicated by gray bars with "0 peptide" control set to 100%. Biofilm detection on a polystyrene 96-well plate at 37°C after 24 h of growth in TSB was detected as the absorbance of crystal violet stain (570 nm). Percent biofilm production is indicated by black bars (n = 6), relative to "0 peptide" control. Each experiment is a representative of at least two independent trials. Error bars indicate the standard deviation from the mean. The asterisk (*) indicates statistically different than the positive control (p < 0.01).
(§2) Biofilm production was measured as previously described with the following modifications. […] The positive control is S. aureus in TSB with no peptide. Six wells were used for each peptide concentration (n = 6). After 24 h, the optical densities (OD) of the wells were taken at 600nm to quantify […]. The biofilm production was measured using the crystal violet stain technique.
All experiments were repeated at least twice, with a representative experiment shown.

[2] = tested on: S. aureus attachment to 96-well plate; assay: Biofilm attachment assay; type: cell-based, Staphylococcus aureus; conditions: peptide 1 μg/ml, 1 h, 37°C, TSB culture OD600 ~1.0, n = 16, Student's t test
Experimental: The attachment of Staphylococcus spp. to solid surfaces is largely seen as an essential step in the formation of biofilm. Since most of the peptides tested in our biofilm assays were capable of inhibiting biofilm formation (except for scrambled LL-37), we investigated a possible mechanism for this action. We incubated scrambled LL-37 (negative control), LL-37, D-LL-37, NA-CATH, and NA-CATH:ATRA1-ATRA1 peptides with S. aureus in a 1 hr attachment assay at peptide concentrations of 1 ug/ml, examining for the initial adherence to the wells of the 96 well tissue-culture treated plate.
Figure 3 Attachment assay of S. aureus in the presence of peptide. We tested scrambled LL-37 (negative control), LL-37, D-LL-37, NA-CATH, and NA-CATH:ATRA1-ATRA1 against S. aureus (1 h, 37°C) at 1 μg/ml, only allowing for the initial adherence to the wells.
Biofilm attachment assays were performed in a 96-well microtiter plate (BD Falcon 353072), as previously described. Overnight cultures of S. aureus were grown in TSB to an optical density (600nm) of ~1.0. 200 μl culture was added to the wells, followed by no peptide, scrambled LL-37 , LL-37, D-LL-37, NA-CATH, or NA-CATH:ATRA1-ATRA1 at 1 μg/ml. […] The wells were washed and OD600 measurements were taken, as in the biofilm production experiments, and the average absorbance for each treatment was determined (n = 16).

S. aureus = assay: Bacterial growth / MIC in TSB; type: cell-based, Staphylococcus aureus; conditions: TSB (relatively high salt), peptide concentrations up to the EC50 found in 10 mM sodium phosphate
Experimental: as §1, §2

erythrocytes = conditions: examined up to 200 μg/ml; cited from earlier work
Experimental: The hemolytic activity of each of the peptides was determined using 2% horse erythrocytes as previously described.

S. aureus (ATCC 25923) = tested on: S. aureus (ATCC 25923)
Experimental: S. aureus (ATCC 25923, American Type Culture Collection, Manassas, VA) was grown in Nutrient Broth (Difco Laboratories, Detroit, Mich.) at pH 7, 37°C, 24 h with shaking at 200 rpm. The overnight culture was frozen with 20% glycerol and stored at -80°C. The frozen stock was enumerated (CFU/ml) by dilution plating and growth on Nutrient Agar plates.
For anti-microbial assays, frozen enumerated aliquots were thawed and gently mixed immediately before use. In a 96-well plate (BD Falcon 353072), 1 × 10^5 CFU per well bacteria were incubated with different peptide concentrations (in serial dilutions of 1:10 across the plate) in a solution of buffer containing sterile 10 mM sodium phosphate (pH 7.4) and incubated (3 h, 37°C). Negative control wells contained bacteria with no peptide. Serial dilutions were then carried out in sterile 1x PBS (Fisher Scientific) (pH 7) and plated in triplicate on Nutrient Agar plates, incubated (37°C, 24 h) and counted. […] The EC50 was calculated as previously described.
Each experiment was repeated at least twice, and a representative experiment is shown, for clarity. Errors were reported based on the standard deviation from the mean of the log10 EC50 values. 95% confidence intervals were used to determine whether points were statistically different at p = 0.05.

Compound	inhibition of biofilm formation [1]	attachment of S. aureus to the wells [2]	bacterial growth (OD600 at 24 hours) (S. aureus)	hemolytic activity (erythrocytes)	EC50 (S. aureus (ATCC 25923); EC50 in μg/ml converted with the molecular weight of the TFA salt of the peptide)	EC50 (S. aureus (ATCC 25923); S. aureus ATCC 25923, 1 × 10^5 CFU per well, 3 h, 37°C, 10 mM sodium phosphate (pH 7.4), % survival by CFU counts, plated in triplicate, representative experiment)	fold change of activity against S. aureus, ATRA-1A compared to ATRA-1 (S. aureus (ATCC 25923); p > 0.05)
CC[C@H](C)[C@H](NC(=O)[C@H](CCCCN)NC(=O)[C@H](CCC(=O)O)NC(=O)[C@H](CCCCN)NC(=O)[C@H](CO)NC(=O)[C@H](CCCCN)NC(=O)[C@H](CCCNC(=N)N)NC(=O)[C@H](Cc1ccccc1)NC(=O)[C@H](Cc1ccccc1)NC(=O)[C@H](CC(=O)O)NC(=O)CNC(=O)[C@H](CC(C)C)NC(=O)[C@@H](N)CC(C)C)C(=O)NCC(=O)N[C@@H](CCCCN)C(=O)N[C@@H](CCC(=O)O)C(=O)N[C@@H](Cc1ccccc1)C(=O)N[C@@H](CCCCN)C(=O)N[C@@H](CCCNC(=N)N)C(=O)N[C@H](C(=O)N[C@H](C(=O)N[C@@H](CCC(N)=O)C(=O)N[C@@H](CCCNC(=N)N)C(=O)N[C@H](C(=O)N[C@@H](CCCCN)C(=O)N[C@@H](CC(=O)O)C(=O)N[C@@H](Cc1ccccc1)C(=O)N[C@@H](CC(C)C)C(=O)N[C@@H](CCCNC(=N)N)C(=O)N[C@@H](CC(N)=O)C(=O)N[C@@H](CC(C)C)C(=O)N[C@H](C(=O)N1CCC[C@H]1C(=O)N[C@@H](CCCNC(=N)N)C(=O)N[C@H](C(=O)N[C@@H](CCC(=O)O)C(=O)N[C@@H](CO)C(=O)O)[C@@H](C)O)C(C)C)[C@@H](C)CC)C(C)C)[C@@H](C)CC [LL-37]	~ 40%	significantly decreased	not decreased	similarly low levels			
KRAKKFFKKLK-NH2 [ATRA-1A]					310 nM	0.73 µg/mL	1.4 fold
